Assay results: patent EP0753512B1, “N,N,-diethyl-8,8-dipropyl-2-azaspiro[4.5]decane-2-propanamin] dimaleate salt” (AnorMED Inc, priority 1995, dated 1997)

Assays:
[1] = Hygroscopicity: rate of moisture absorption, Integrated Microbalance System; format: physicochemical; details: for % Weight Gain (Moisture Absorption): 25 °C; for hygroscopicity: statement in words, upon storage
Protocol: The rate of moisture absorption of Compound B and Compound C were tested individually in an Integrated Microbalance System, MODEL MB 300 G (VTI Corporation, Hialeah, Florida) using the accompanying Software Manual. Table 2(a) [table]

[2] = Relative solubilities in water, HCl and methanol; format: physicochemical
[3] = organic solvent or mixture, Solvent: methanol

Compound	% Weight Gain (Moisture Absorption) ([1]; 0 % relative humidity)	% Weight Gain (Moisture Absorption) ([1]; 10 % relative humidity)	% Weight Gain (Moisture Absorption) ([1]; 15 % relative humidity)	% Weight Gain (Moisture Absorption) ([1]; 20 % relative humidity)	% Weight Gain (Moisture Absorption) ([1]; 25 % relative humidity)	% Weight Gain (Moisture Absorption) ([1]; 30 % relative humidity)	% Weight Gain (Moisture Absorption) ([1]; 35 % relative humidity)	% Weight Gain (Moisture Absorption) ([1]; 40 % relative humidity)	% Weight Gain (Moisture Absorption) ([1]; 45 % relative humidity)	% Weight Gain (Moisture Absorption) ([1]; 50 % relative humidity)	% Weight Gain (Moisture Absorption) ([1]; 55 % relative humidity)	% Weight Gain (Moisture Absorption) ([1]; 60 % relative humidity)	% Weight Gain (Moisture Absorption) ([1]; 65 % relative humidity)	% Weight Gain (Moisture Absorption) ([1]; 70 % relative humidity)	% Weight Gain (Moisture Absorption) ([1]; 75 % relative humidity)	% Weight Gain (Moisture Absorption) ([1]; 80 % relative humidity)	% Weight Gain (Moisture Absorption) ([1]; 85 % relative humidity)	hygroscopicity [1]	solubility ([2]; Solvent: 0.1% HCl)	solubility ([2]; Solvent: Water)	further results
CCCC1(CCC)CCC2(CCN(CCCN(CC)CC)C2)CC1.O=C(O)/C=C\C(=O)O.O=C(O)/C=C\C(=O)O [Compound C, N,N-diethyl-8,8-dipropyl-2-azaspiro[4.5]decane-2-propanamine dimaleate]	0%	-0.21%	-0.18%	-0.08%	-0.12%	-0.08%	-0.08%	-0.08%	-0.05%	-0.04%	0.04%	0.1%	0.18%	0.41%	0.56%	0.89%	1.70%	far less hygroscopic	> 100 mg/mL	> 100 mg/mL	% Weight Gain (Moisture Absorption) ([1]; 90 % relative humidity): 5.37%; % Weight Gain (Moisture Absorption) ([1]; 95 % relative humidity): 42.88%; solubility [2, 3]: > 100 mg/mL
CCCC1(CCC)CCC2(CCN(CCCN(CC)CC)C2)CC1.Cl.Cl [Compound B, N,N-diethyl-8,8-dipropyl-2-azaspiro[4.5]decane-2-propanamine dihydrochloride, reference compound]	0%	0.20%	1.81%	2.17%	2.84%	3.74%	3.15%	3.30%	4.74%	5.49%	9.07%	9.26%	9.50%	15.47%	31.30%	36.53%	44.16%	hygroscopic	> 100 mg/mL	> 100 mg/mL	solubility [2, 3]: > 100 mg/mL
